Where “and” joins values, the source holds several entries; their conditions need not be identical. Identical values can stand only once. Entries after “also recorded” stand apart in the source; their conditions may differ.
Tests used:
[1] = system: intraocular pressure (IOP); test: Intraocular pressure in New Zealand White rabbits, topical dosing four times daily; assay type: in vivo
Experimental: (§1) On Days 1-31, animals received daily topical doses of the appropriate test article into the right eye. Animals were dosed four times per day, with doses administered 2 hours apart. Doses were administered using a calibrated 50-μL pipette. The eyelids were held close for 10 seconds immediately following dosing. The time of each dose administration was recorded.
Intraocular pressure (“IOP”) was determined for both eyes of each animal on Days 3, 5, 10, 12, 16, 18, 22, 24, 26, 30, and 32. IOP was evaluated with a Medtronic Solan, Model 30 classic pneumatonometer. Proparacaine hydrochloride 0.5% (1 drop) was delivered to each eye prior to IOP measurement. IOP was measured on Monday. Wednesday, and Friday of each week. A two-point diurnal curve was established: IOP was recorded at 8 a.m. and 12 p.m. on Day 3, and at 8 a.m. and 2 p.m. on later days, with a ±1 hour range for each of these times. The time of the measurements was recorded.
Descriptive statistics were prepared for IOP data of each treatment group (left and right eyes separately) at each measurement interval. The statistics included the number of observations (“N”) mean, standard deviation (“STD”), and standard error (“SEM”). Statistical analyses were conducted on IOP results using Statistical Analysis Systems (SAS Institute. Inc., Cary, N.C. V8.0). Parameters were evaluated using analysis of variance/GLM Procedure followed by Tukey's Standardized Range Test (Tukey, 1985) for post hoc comparisons of group means. The level of significance was set at a probability of p<0.05 for all statistical procedures. Group IOP means were compared at each interval, with left and right eyes compared separately.

[2] = system: New Zealand White rabbits; test: Mortality/morbidity in New Zealand White rabbits, topical dosing four times daily; assay type: in vivo
Experimental: as §1
Animals determined to be moribund were euthanized with an intravenous injection of commercial euthanasia solution.

pupillary diameter = test: Pupillary diameter measurement, rabbit paracentesis model; assay type: in vivo, Rabbit (New Zealand); details: for Pupillary diameter T2: −5 min: 5 min before the first paracentesis; for Pupillary diameter T2: −5 min / Pupillary diameter T3: +115 min / Pupillary diameter T1: −180 min: raw data per eye; for Pupillary diameter T3: +115 min: 5 min before the second paracentesis; for Pupillary diameter T1: −180 min: basal; for Mean (mm) Δ(T3 − T1) of pupillary diameter: group mean, n=8 eyes
[3] = system: PGE2 in the aqueous humor; test: Prostaglandin E2 (PGE2) measurement in aqueous humor, rabbit paracentesis model; assay type: in vivo, Rabbit (New Zealand); details: for PGE2 level in aqueous humor, Mean: second paracentesis, group mean
Experimental: (§2) Each rabbit was placed in a restraint device and tagged with the alphanumeric code. The formulations were instilled (50 μl) into the conjunctival sac of both eyes 180, 120, 90 and 30 min before the first paracentesis; then 15, 30, 90 min after the first paracentesis. To perform the first paracentesis the animals were anaesthetized by intravenous injection of 5 mg/kg Zoletil® (Virbac; 2.5 mg/kg tiletamine HCl and 2.5 mg/kg zolazepam HCl) and one drop of local anesthetic (Novesina®, Novartis) was administered to the eye. Anterior chamber paracentesis was performed with a 26 G needle attached to a tuberculin syringe; the needle was introduced into the anterior chamber through the cornea, taking care not to damage the tissues. Two hours after the first paracentesis, the animals were sacrificed with 0.4 ml Tanax® (Intervet International B.V.) and the second paracentesis was performed. About 100 μl of aqueous humor were removed at the second paracentesis. Aqueous humor was immediately split in four aliquots and stored at −80° C. until analysis. Then both eyes were enucleated and the iris-ciliary body was carefully excised, placed in polypropylene tubes, and stored at −80° C. until analysis.
For the quantitative determination of PGE2 in the aqueous humor we used the PGE2 Immunoassay kit (R&D Systems; Cat. No. KGE004; Lot. No. 240010). Eleven microliters or 16 μl of aqueous humor were diluted to 110 μl or 160 μl with the calibrator diluent solution provided with the kit. One hundred microliters of samples and of standards were load into a 96-well plate and recorded in a plate layout. Samples were treated following the assay procedure described in the kit. A microplate reader (GDV, Italy; model DV 990 B/V6) set at 450 nm (wavelength correction at 540 nm) was used for making the calibration and analyzing the samples.
(§3) Pupillary diameter, PGE2, protein, PMN, and MPO were expressed as mean±SEM. Statistical analysis was performed using one way ANOVA followed by a Newman-Keuls post hoc test. Clinical score was expressed as % of eyes and the statistical analysis was performed using Kruskal-Wallis followed by a Dunn post hoc test. P<0.05 was considered statistically significant in both cases. Prism 4 software (GraphPad Software, Inc.) was used for the analysis and graphs.

[4] = system: iris and conjunctival vessels, anterior chamber; test: Clinical evaluation by slit lamp (clinical score), rabbit paracentesis model; assay type: in vivo, Rabbit (New Zealand); design: key to Clinical Score −180 min / Clinical Score −5 min / Clinical Score +115 min: 0=normal; 1=discrete dilatation of iris and conjunctival vessels; 2=moderate dilatation of iris and conjunctival vessels; 3=intense iridal hyperemia with flare in the anterior chamber; 4=intense iridal hyperemia with flare in the anterior chamber and presence of fibrinous exudates; details: for Clinical Score −5 min: 5 min before the first paracentesis; for Clinical Score −5 min / Clinical Score +115 min / Clinical Score −180 min: raw data per eye; for Clinical Score +115 min: 5 min before the second paracentesis; for Clinical Score −180 min: basal
rabbit eyes = test: Ophthalmic observations (slit lamp, McDonald Shadduck scores) in New Zealand White rabbits; assay type: in vivo; design: key to Ophthalmic Observation (Slit-Lamp): AN = Appeared normal
Experimental: Prior to placement on study, each animal underwent a pre-treatment ophthalmic examination (slit lamp and indirect ophthalmoscopy). Observations were scored according to the McDonald Shadduck system and recorded using a standardized data collection sheet.
as §1
Ophthalmic examinations (slit lamp) were performed prior to the first dosing on Days 5, 12, 22, 26, and 33. Ocular findings were scored according to the McDonald Shadduck system and recorded using a standardized data collection sheet.

[5] = system: MPO activity in iris-ciliary body; test: Myeloperoxidase (MPO) activity in iris-ciliary body, rabbit paracentesis model; assay type: in vivo, Rabbit (New Zealand); details: for MPO activity in iris-ciliary body: individual samples collected after the second paracentesis; for MPO activity in iris-ciliary body, Mean: after the second paracentesis, group mean
Experimental: as §2
The activity of MPO was measured as previously described by Williams et al.[5] The iris-ciliary bodies were carefully dried, weighed and immersed in 1 ml of hexa-decyl-trimethyl-ammonium bromide solution. Then, the samples were sonicated for 10 sec on ice by a ultrasound homogenizer (HD 2070, Bandelin electronic), freeze-thawed three times, sonicated for 10 sec and centrifuged at 14,000 g for 10 min to remove cellular debris. An aliquot of the supernatant (40-200 μl) was diluted to 3 ml with the o-dianisidine 2HCl/H2O2 solution. The change in absorbance at 460 nm was continuously monitored for 5 min by a spectrophotometer (UV/Vis Spectrometer Lambda EZ 201; Perkin Elmer). The slope of the line (Δ/min) was determined for each sample and used to calculate the number of units of MPO in the tissue as follows:
Values were expressed as units of MPO/g of tissue.
as §3

[6] = system: protein concentration in the aqueous humor; test: Protein measurement in aqueous humor, rabbit paracentesis model; assay type: in vivo, Rabbit (New Zealand); details: for Protein level in aqueous humor, Mean / Protein level in aqueous humor, raw data: second paracentesis; for Protein level in aqueous humor, Mean: group mean; for Protein level in aqueous humor, raw data: per eye
Experimental: as §2
For protein concentration determination in the aqueous humor we used the Protein Quantification Kit (Fluka; Cat. No. 77371; Lot. No. 1303129). Five microliters of aqueous humor were diluted to 100 μl with water. Twenty microliters of samples and of standards were load into a 96-well plate and recorded in a plate layout. Samples were treated following the assay procedure described in the kit. A microplate reader (GDV, Italy; model DV 990 B/V6) set at 670 nm was used for making the calibration and analyzing the samples.
as §3

[7] = Group A, 0.1% (0.05 mg/dose) 4 x daily, individual rabbits
[8] = 0.1% formulation, +115 min, N=8 eyes
[9] = 0.1% formulation, −5 min, N=8 eyes
[10] = Group A, 0.1%, treated right eye, individual animals

Structure (SMILES): C[C@@H]1C[C@H]2[C@@H]3CCC4=CC(=O)C=C[C@]4(C)[C@@]3(F)[C@@H](O)C[C@]2(C)[C@@]1(O)C(=O)CO [Dex, dexamethasone, reference compound]
- Mean IOP of the group compared with corresponding eyes of other groups ([1]; 0.1% dexamethasone (Group A), on several days, one or both eyes, p<0.05): significantly higher
- Course of mean IOP after treatment began ([1]; left and right eyes, dexamethasone 0.1% (Group A), BOL-303242-X 10, 5, 1 mg/g (Groups B-D), four times daily): increased sharply
- Mortality (rabbits that died or were euthanized between Days 11 and 33) ([2]; 0.05 mg/dose (0.1% dexamethasone suspension or 1 mg/g BOL-303242-X), right eye four times daily, Days 1-31): Six of ten
- Day of Death (day euthanized or found dead) [2, 7]: 25 (2×) and 27 (2×) and 23 and 13
- Recorded Notes on death [2, 7]: Euthanized. Very sick/poor health; left (untreated) eye; also recorded: Euthanized due to severe profuse hemorrhagic diarrhea; also recorded: Found dead. No rigor mortis present
- Mortality rate ([2]; dexamethasone suspension 0.05 mg/dose four times daily up to 31 days): 6 deaths per 10 rabbits
- Pupillary diameter T2: −5 min (pupillary diameter; 0.1% formulation): 5.5 mm and 6.5 mm and 6.0 mm and 7.0 mm and 7.5 mm
- Pupillary diameter T3: +115 min (pupillary diameter; 0.1% formulation): 5.5 mm and 6.0 mm and 4.5 mm and 5.0 mm and 6.5 mm
- Pupillary diameter T1: −180 min (pupillary diameter; 0.1% formulation): 6.0 mm and 7.0 mm and 5.5 mm and 6.5 mm
- Mean (mm) Δ(T3 − T1) of pupillary diameter (pupillary diameter; 0.1% formulation): −0.8 mm
- PGE2 level in aqueous humor, Mean ([3]; 0.1% formulation): 2.263 ng/mL
- Clinical Score −5 min ([4]; 0.1% formulation): 0 and 1
- Clinical Score +115 min ([4]; 0.1% formulation): 1 and 3
- Percentage of eyes with clinical score 1 [4, 8]: 75%
- Percentage of eyes with clinical score 3 [4, 8]: 25%
- Clinical Score −180 min ([4]; 0.1% formulation): 0
- Percentage of eyes with clinical score 0 [4, 9]: 75%
- Percentage of eyes with clinical score 1 [4, 9]: 25%
- Percentage of eyes with clinical score 0 ([4]; 0.1% formulation, −180 min (basal), N=8 eyes): 100%
- Conjunctival congestion Score (rabbit eyes; [10]): 1
- Ophthalmic Observation (Slit-Lamp) (rabbit eyes; [10]): AN
- Ophthalmic observation associated with unilateral topical instillation (rabbit eyes; four times daily up to 31 days, BOL-303242-X 0.05, 0.25, or 0.5 mg/dose, dexamethasone 0.05 mg/dose): sporadic mild conjunctival congestion
- MPO activity in iris-ciliary body ([5]; 0.1% Dex): 1.32 Unit/g
- MPO activity in iris-ciliary body, Mean ([5]; 0.1% formulation): 0.618 MPO Unit/g
- Protein level in aqueous humor, Mean ([6]; 0.1% formulation): 33.457 mg/mL
- Protein level in aqueous humor, raw data ([6]; 0.1% formulation): 31.31 mg/mL and 31.81 mg/mL and 35.95 mg/mL and 37.15 mg/mL and 32.12 mg/mL and 32.40 mg/mL

Structure (SMILES): CC(C(=O)O)c1ccc(-c2ccccc2)c(F)c1 (stereo not shown) [F, flurbiprofen]
- Pupillary diameter T2: −5 min (pupillary diameter; 0.03% formulation): 6.0 mm and 6.5 mm and 7.0 mm and 5.5 mm
- Pupillary diameter T3: +115 min (pupillary diameter; 0.03% formulation): 4.0 mm and 3.5 mm and 5.5 mm and 5.0 mm and 4.5 mm and 6.0 mm
- Pupillary diameter T1: −180 min (pupillary diameter; 0.03% formulation): 5.0 mm and 7.0 mm and 6.0 mm and 5.5 mm
- Mean (mm) Δ(T3 − T1) of pupillary diameter (pupillary diameter; 0.03% formulation): −0.9 mm
- PGE2 in aqueous humor, statistical significance versus CTR ([3]; 0.03% formulation, p<0.05): statistically significant versus CTR
- PGE2 level in aqueous humor, Mean ([3]; 0.03% formulation): 1.189 ng/mL
- Clinical Score −5 min ([4]; 0.03% formulation): 0
- Clinical Score +115 min ([4]; 0.03% formulation): 2
- Percentage of eyes with clinical score 2 ([4]; 0.03% formulation, +115 min, N=8 eyes): 100%
- Clinical Score −180 min ([4]; 0.03% formulation): 0
- Percentage of eyes with clinical score 0 ([4]; 0.03% formulation, −5 min, N=8 eyes): 100%
- Percentage of eyes with clinical score 0 ([4]; 0.03% formulation, −180 min (basal), N=8 eyes): 100%
- MPO activity in iris-ciliary body ([5]; 0.03% F): 1.27 Unit/g
- MPO activity in iris-ciliary body, Mean ([5]; 0.03% formulation): 0.906 MPO Unit/g
- Protein in aqueous humor, statistical significance vs CTR ([6]; 0.03% formulation, p<0.001): statistical significance
- Protein level in aqueous humor, Mean ([6]; 0.03% formulation): 20.910 mg/mL
- Protein level in aqueous humor, raw data ([6]; 0.03% formulation): 20.78 mg/mL and 28.80 mg/mL and 23.41 mg/mL and 20.21 mg/mL and 17.53 mg/mL and 15.12 mg/mL and 20.52 mg/mL

Reference: US20120316199A1, “COMPOSITIONS AND METHODS FOR TREATING, CONTROLLING, REDUCING, OR AMELIORATING INFLAMMATORY PAIN” (priority 2011, published 2012)
